Results from patent US20080206219A1, “Novel Indications for Transforming Growth Factor-Beta Regulators” (THE REGENCTS OF THE UNIVERSITY OF CALIFORNIA, priority 2003, published 2008).
“Also recorded” adds a separate entry of the source.

Key:
[1] = test system: gelatinolytic activity in Collα1(I)r/r skin; assay: Substrate conversion assay (DQ-gelatin) on skin lysates; assay type: biochemical, mice; conditions: inhibitor at 4 mM
Protocol: Shaved back skin pieces from 5-8 week old mice were pulverized in liquid N2 and solubilized in 500 μl buffer (0.25 M sucrose, 5 mM Tris, pH 7.5, protease Inhibitor cocktail mix without EDTA (Roche), 0.25 mg/ml Pefablock (Roche), 0.01 mg/ml Aprotinin (Sigma-Aldrich) using a 2 ml tissue grinder (Fisher) and centrifuged at 4° C. 800×g for 15-min. Supernatants were centrifuged for 1-hr at 100,000×g at 4° C. Supernatants were stored at −80° C., pellets were resuspended in 100 μl solubilization buffer, homogenized by sonication at 4° C., and stored at −80° C. Protein concentration was determined with the BioRad DC Protein assay reagent according to manufacturers instructions (BioRad). Prior to assay, lysate buffers were exchanged using Micro Bio-spin chromatography columns (Bio-gelP-6; BioRad) to 10 mM Tris pH 7.5 according to the manufacturers specifications. […] Reactions were incubated up to 5-hr at 37° C. and fluorescence measured (excitation 485 nm, emission 530 nm) every 3-min on a Microplate Spectrofluorometer (SpectraMax Gemini EM, Molecular Devices) and quantified using SoftMax Pro 4.1 software. […]

[2] = test system: Collα1(I)+/+ and Collα1(I)r/r mice; assay: Miles assay: Evans blue leakage in ears after mustard oil challenge; assay type: in vivo; conditions: for Evans blue dye leakage into vascular stroma after MO, GM6001-treated versus vehicle-treated mice: GM6001 i.p. 100 mg/kg daily for 3-days before MO challenge
Protocol: Evans blue (EB) dye (30 mg/kg in 100 μl PBS; Sigma-Aldrich) was injected into the tail vein of 7- to 8-week-old mice. In some experiments, after 1-min, 30 μl of 5% mustard oil (Phenyl Isothiocyanate, 98%, Sigma-Aldrich) diluted in mineral oil (Sigma-Aldrich) was applied to the dorsal and ventral surfaces of the ear; the application process was repeated 15 minutes later. Isoflurane anesthesized mice were photographed 30 minutes after injection of EB dye. Anesthesized mice were then cardiac perfused, ears removed, blotted dry and weighed. EB dye was extracted from ears in 1 ml of formamide overnight to 48-hrs at 60° C. and measured spectrophotometrically at 610 nm in a SpectraMax 340™ (Molecular Devices). Data are expressed as mean±SEM. Comparisons of the amounts of dye extravasation were evaluated by Mann-Whitney statistical test with p values less than 0.05 considered significant. In some experiments, 5-min prior to the infusion of EB dye, shaved 5-to 7-week old mice were injected (10 μl) intradermally with one of the following agents at the concentrations shown (VEGF120, R&D Systems; VEGF164, Chemicon; histamine, Calbiochem; serotonin, Sigma-Aldrich) and the appearance of a blue spot monitored for 30 minutes at which time mice were euthanized, cardiac perfused, photographed and the area of skin surrounding the site of injection excised (˜5 mm^2), photographed and EB dye extracted as above. […]
The vascular physiology in a mouse model of human Sc, e.g., Collα1(I)^r/r mice, was studied to determine whether an altered balance between collagen synthesis, accumulation and/or degradation was a rate-limiting factor for efficient vascular physiology prior to histopathologic appearance of Sc disease. The ears of Collα1(I)^r/r versus littermate control (Collα1(I)^+/+) mice were treated with vehicle alone (mineral oil; FIG. 1A) or mustard oil (MO; 5% in mineral oil: right ear), an inflammatory agent that induces plasma leakage, vasodilation of capillaries and inflammation in the skin (FIG. 1A). Evans blue dye (30 mg/kg in 100 μl PBS; Sigma Chemical Co., St. Louis, Mo., USA) was injected into the tail vein of the mice. After 1 minute, 5% mustard oil (Phenyl Isothiocyanate, 98%, Sigma) diluted in mineral oil (Sigma) was applied to the dorsal and ventral surfaces of the ear with a cotton swab; the application process was repeated 15 minutes later. […] Isoflurane anesthesized mice were photographed 30 minutes after injection of Evans blue dye. Anesthesized mice were then cardiac perfused, ears removed, blotted dry, and weighed. The Evans blue dye was extracted from the ears with 1 ml of formamide overnight at 60° C. and measured spectrophotometrically at 610 nm in a SpectraMax 340™ (Molecular Devices). Data are expressed as mean±SEM. Comparisons of the amounts of dye extravasation were evaluated by the Fisher's t test with p values less than 0.05 considered significant.
Vascular permeability (VP) responses in control and Collα1(I)^r/r mice treated with a broad spectrum synthetic metalloproteinase inhibitor (MPI), e.g., GM6001 were examined. GM6001 (N-[(2R)-2(hydroxyamidocarbonylmethyl)-4-methylpantanoyl]-L-tryptophan ethylamide), a broad, class-specific metalloproteinase inhibitor (Chemicon, Temecula Calif.), was administered daily i.p. at 100 mg/kg body weight as a 20 mg/ml slurry in 4% carboxymethylcellulose in 0.9% PBS daily for 3-days. Controls were treated with a daily injection of 4% carboxymethylcellulose in PBS. The animals were then subject to cutaneous challenge with MO and qualitative and quantitative assessment of Evans blue dye leakage into vascular stroma (FIG. 5A).

[3] = test system: TGFβ1; assay: IP-Western of mature dimeric TGFβ1 in tissue lysates of treated mice; assay type: in vivo; conditions: lysates from Collα1(I)+/+ and Collα1(I)r/r mice treated with GM6001
Protocol: After incubation with protein agarose G or A beads (Roche) beads for an additional hour at 4° C., lysates bound to agarose beads were washed three times with HNTG buffer and bound proteins were eluted by boiling in 1× reduced SDS_PAGE sample buffer for 5-min and centrifuged at 13,000 rpm for 10-min. Tissue lysates (20 μg for LAP) or eluted immunoprecipitated complexes were separated by electrophoresis on 10% SDS-polyacrylamine gels, and transferred to nitrocellulous membranes overnight at 4° C. […] Membranes were then washed and developed by using an enhanced chemiluminescence kit (ECL, Amersham Biosciences). Biotinylated-LAP antibodies (R&D System BAF246, 1:1000), biotinylated anti-TGF-β 1 antibodies (R&D System BAF240, 1:1000) and antibodies to MMP14 (Oncogene Sciences 1M397, 1:1,000; Chemicon AB8104, 1:1000 were used for detection on membranes. For loading control in LAP western analysis, rat monoclonal antibody (AbCam YL1/2, 1:5,000) against o-tubulin and goat anti-rat-HRP (Pierce, 1:2000) antibodies were used.

[4] = test system: MP activity; conditions: GM6001 i.p. 100 mg/kg, 20 mg/ml slurry in 4% CMC; cited from earlier work
[5] = control versus Colα1(I)r/r mice +/- mustard oil, p<0.03

| SMILES | gelatinolytic activity in skin lysate [1] | Evans blue dye leakage into vascular stroma after MO, GM6001-treated versus vehicle-treated mice ([2]; Collα1(I)r/r mice) | Evans blue dye leakage into vascular stroma after MO, GM6001-treated versus vehicle-treated mice ([2]; control Collα1(I)+/+ mice) | effect of GM6001, fold increase (FIG. 5) [2, 5] | effect of GM6001, increase in % (FIG. 5) [2, 5] | level of ~25 kDa dimeric mature form of TGFβ1 in tissue lysates [3] | in vivo MP activity [4] |
| --- | --- | --- | --- | --- | --- | --- | --- |
| c1cnc2c(c1)ccc1cccnc12 [1,10 phenanthroline] | completely inhibited | – | – | – | – | – | – |
| CNC(=O)[C@H](Cc1c[nH]c2ccccc12)NC(=O)[C@@H](CC(=O)NO)CC(C)C [GM6001] | – | significantly above vehicle-treated; also recorded: restored the appropriate acute vascular responses; also recorded: restores acute vascular responses | higher than that observed in MO-treated control mice receiving vehicle alone; also recorded: even more susceptible to MO-induced EB leakage; also recorded: hyper-sensitive to vascular leakage | 1.8 fold | 54% | markedly decreased; also recorded: reduced | inhibit in vivo MP activity |
